Experimental data published in the CheMixHub viscosity set.
Several values for one entry are separate records, joined by “and”; a condition that tells them apart may be missing. Identical values can stand only once. ± gives the uncertainty stated by the source.

Test: xn = mol fraction of the nth substance listed

CN(CCO)CCO + O
viscosity
Settings	293.15 K	298.15 K	303.15 K	308.15 K	313.15 K	323.15 K
100 kPa, x1 = 0.131	–	9.324 ± 0.38 mPa·s	–	–	–	–
101 kPa, x1 = 0.06	–	–	2.548 ± 0.085 mPa·s	–	1.906 ± 0.061 mPa·s	–
101 kPa, x1 = 0.1	7.325 ± 0.88 mPa·s	–	4.901 ± 0.51 mPa·s	–	3.458 ± 0.32 mPa·s	2.551 ± 0.22 mPa·s
101 kPa, x1 = 0.11	–	–	5.312 ± 0.17 mPa·s	–	3.729 ± 0.12 mPa·s	2.777 ± 0.087 mPa·s
101 kPa, x1 = 0.1991	26.19 ± 1.9 mPa·s	–	15.41 ± 1.1 mPa·s	–	9.684 ± 0.66 mPa·s	6.517 ± 0.43 mPa·s
101 kPa, x1 = 0.2985	56.54 ± 3.6 mPa·s	–	31.07 ± 2 mPa·s	–	18.14 ± 1.1 mPa·s	11.42 ± 0.72 mPa·s
101 kPa, x1 = 0.3975	84.73 ± 5.2 mPa·s	–	45.33 ± 2.8 mPa·s	–	25.74 ± 1.6 mPa·s	15.8 ± 0.97 mPa·s
101 kPa, x1 = 0.4963	103.2 ± 6.4 mPa·s	–	54.91 ± 3.3 mPa·s	–	31.5 ± 1.9 mPa·s	18.96 ± 1.2 mPa·s
101 kPa, x1 = 0.5949	113.9 ± 7 mPa·s	–	60.93 ± 3.7 mPa·s	–	–	20.85 ± 1.3 mPa·s
101 kPa, x1 = 0.6934	115.5 ± 7.1 mPa·s	–	62.48 ± 3.8 mPa·s	–	35.73 ± 2.2 mPa·s	21.72 ± 1.3 mPa·s
101 kPa, x1 = 0.7916	113.6 ± 7 mPa·s	–	61.99 ± 3.8 mPa·s	–	35.44 ± 2.1 mPa·s	21.95 ± 1.3 mPa·s
101 kPa, x1 = 0.8896	109.8 ± 6.8 mPa·s	–	59.49 ± 3.6 mPa·s	–	35.12 ± 2.1 mPa·s	–
101 kPa, x2 = 0.815	–	17.44 ± 0.24 mPa·s	–	–	–	–
101 kPa, x2 = 0.9	–	9.66 ± 0.11 mPa·s	–	–	–	–
101 kPa, x2 = 0.91	6.35 ± 1.3 mPa·s	5.4 ± 0.06 mPa·s and 5.25 ± 1.1 mPa·s	4.34 ± 0.87 mPa·s	–	–	–
101 kPa, x2 = 0.9391	–	3.27 ± 0.03 mPa·s	–	–	–	–
101 kPa, x2 = 0.94	3.53 ± 0.71 mPa·s	2.99 ± 0.6 mPa·s	2.54 ± 0.51 mPa·s	–	1.89 ± 0.38 mPa·s	1.45 ± 0.29 mPa·s
101 kPa, x2 = 0.96	2.264 ± 0.45 mPa·s	1.921 ± 0.38 mPa·s	1.695 ± 0.34 mPa·s	–	1.32 ± 0.26 mPa·s	–
101.3 kPa, x1 = 0.02	1.541 ± 0.25 mPa·s	1.316 ± 0.25 mPa·s	–	–	0.931 ± 0.24 mPa·s	0.773 ± 0.24 mPa·s
101.3 kPa, x1 = 0.04	2.268 ± 0.26 mPa·s	1.924 ± 0.25 mPa·s	1.697 ± 0.25 mPa·s	–	1.325 ± 0.24 mPa·s	1.068 ± 0.24 mPa·s
101.3 kPa, x1 = 0.06	3.637 ± 0.29 mPa·s	3.036 ± 0.26 mPa·s	2.594 ± 0.25 mPa·s	–	–	–
101.3 kPa, x1 = 0.09	6.345 ± 0.37 mPa·s	5.245 ± 0.3 mPa·s	4.325 ± 0.28 mPa·s	–	3.107 ± 0.26 mPa·s	2.367 ± 0.25 mPa·s
101.3 kPa, x1 = 0.1	11.84 ± 0.64 mPa·s	9.196 ± 0.41 mPa·s	7.437 ± 0.34 mPa·s	–	5.101 ± 0.29 mPa·s	3.599 ± 0.27 mPa·s
101.3 kPa, x1 = 0.2	22.64 ± 0.98 mPa·s	17.25 ± 0.72 mPa·s	–	–	8.843 ± 0.39 mPa·s	6.015 ± 0.31 mPa·s
101.3 kPa, x1 = 0.3	37.14 ± 2 mPa·s	29.03 ± 1.1 mPa·s	22.69 ± 0.82 mPa·s	–	14.91 ± 0.57 mPa·s	9.618 ± 0.42 mPa·s
101.3 kPa, x1 = 0.4	71.95 ± 3.1 mPa·s	58.29 ± 2 mPa·s	42.41 ± 1.6 mPa·s	–	24.45 ± 1 mPa·s	14.36 ± 0.59 mPa·s
101.3 kPa, x1 = 0.6	101.9 ± 7.8 mPa·s	81.67 ± 5 mPa·s	54.66 ± 1.9 mPa·s	–	34.23 ± 1.4 mPa·s	19.22 ± 0.8 mPa·s
101.33 kPa, x1 = 0.017	–	–	1.137 ± 0.01 mPa·s	–	0.907 ± 0.008 mPa·s	–
101.33 kPa, x1 = 0.036	2.262 ± 0.022 mPa·s	1.941 ± 0.019 mPa·s	1.686 ± 0.016 mPa·s	–	–	1.051 ± 0.01 mPa·s
101.33 kPa, x1 = 0.061	3.69 ± 0.042 mPa·s	3.092 ± 0.035 mPa·s	–	–	–	–
101.33 kPa, x1 = 0.092	6.452 ± 0.085 mPa·s	5.253 ± 0.07 mPa·s	4.359 ± 0.057 mPa·s	3.671 ± 0.048 mPa·s	3.112 ± 0.041 mPa·s	2.309 ± 0.03 mPa·s
101.33 kPa, x1 = 0.13	11.7 ± 0.18 mPa·s	9.208 ± 0.14 mPa·s	7.436 ± 0.11 mPa·s	6.097 ± 0.092 mPa·s	–	3.642 ± 0.055 mPa·s
